Results as given in the NIST ThermoML archive (doi:10.1021/je060271a).

Settings: 343.15 K, Liquid, Vibrating tube method

CCCC(=O)OCC(COC(=O)CCC)(COC(=O)CCC)COC(=O)CCC [pentaerythritol tetrabutyrate]
Settings	mass density [kg/m3]
14185 kPa	1019
14223 kPa	1019.1
14263 kPa	1019
14296 kPa	1019.1
14334 kPa	1019.1
14374 kPa	1019.1
14412 kPa	1019.1
14452 kPa	1019.2
14485 kPa	1019.2
14525 kPa	1019.1
14564 kPa	1019.1
14606 kPa	1019.2
14639 kPa	1019.3
14680 kPa	1019.3
14721 kPa	1019.3
14764 kPa	1019.4
14805 kPa	1019.4
14840 kPa	1019.4
15093 kPa	1019.6
15139 kPa	1019.6
15180 kPa	1019.6
15211 kPa	1019.8
15248 kPa	1019.7
15286 kPa	1019.7
15317 kPa	1019.7
15355 kPa	1019.8
15392 kPa	1019.8
15430 kPa	1019.8
15469 kPa	1019.9
15538 kPa	1019.9
15616 kPa	1020
15655 kPa	1019.9
15688 kPa	1020.1
15727 kPa	1020.1
15769 kPa	1020
15802 kPa	1020.2
15842 kPa	1020.2
15881 kPa	1020.2
15922 kPa	1020.2
15956 kPa	1020.2
15997 kPa	1020.2
16038 kPa	1020.3
16079 kPa	1020.2
16120 kPa	1020.4
16154 kPa	1020.3
16195 kPa	1020.4
16239 kPa	1020.3
16276 kPa	1020.5
16318 kPa	1020.4
16360 kPa	1020.5
16403 kPa	1020.5
16446 kPa	1020.6
16489 kPa	1020.5
16526 kPa	1020.6
16570 kPa	1020.6
16614 kPa	1020.7
16659 kPa	1020.6
16696 kPa	1020.7
16741 kPa	1020.8
16787 kPa	1020.9
16833 kPa	1020.9
16879 kPa	1020.9
16918 kPa	1021
16964 kPa	1021
17012 kPa	1020.9
17052 kPa	1021
17100 kPa	1021.1
17143 kPa	1021.2
17186 kPa	1021
17229 kPa	1021.2
17265 kPa	1021.1
17310 kPa	1021.1
17355 kPa	1021.3
17393 kPa	1021.2
17439 kPa	1021.3
17485 kPa	1021.2
17525 kPa	1021.4
17560 kPa	1021.3
17590 kPa	1021.4
17624 kPa	1021.4
17660 kPa	1021.5
17694 kPa	1021.4
17730 kPa	1021.5
17760 kPa	1021.5
17796 kPa	1021.6
17870 kPa	1021.5
17900 kPa	1021.5
17935 kPa	1021.6
17972 kPa	1021.8
18009 kPa	1021.6
18039 kPa	1021.7
18076 kPa	1021.8
18113 kPa	1021.7
18150 kPa	1021.8
18187 kPa	1021.7
18218 kPa	1021.8
18256 kPa	1021.9
18294 kPa	1021.8
18332 kPa	1022
18370 kPa	1021.9
18402 kPa	1021.9
18441 kPa	1022
18479 kPa	1022
18518 kPa	1022.1
18552 kPa	1022.2
18590 kPa	1022.1
18630 kPa	1022.1
18669 kPa	1022.1
18703 kPa	1022.1
18742 kPa	1022.2
18784 kPa	1022.2
18824 kPa	1022.3
18864 kPa	1022.3
18898 kPa	1022.2
18938 kPa	1022.4
18978 kPa	1022.3
19020 kPa	1022.4
19054 kPa	1022.4
19096 kPa	1022.5
19138 kPa	1022.5
19216 kPa	1022.5
19297 kPa	1022.6
19340 kPa	1022.6
19382 kPa	1022.6
19425 kPa	1022.6
19468 kPa	1022.7
19504 kPa	1022.8
19548 kPa	1022.7
19591 kPa	1022.9
19634 kPa	1022.7
19679 kPa	1022.9
19717 kPa	1022.8
19761 kPa	1022.8
19809 kPa	1022.9
19854 kPa	1022.9
19892 kPa	1023
19938 kPa	1023
19984 kPa	1023.1
20022 kPa	1023.2
20068 kPa	1023.1
20115 kPa	1023.2
20161 kPa	1023.1
20200 kPa	1023.2
20247 kPa	1023.1
20294 kPa	1023.1
20341 kPa	1023.3
